{"source": "PubChem BioAssay AID180", "about": "(DTP/NCI, 2004)", "system": "BDF1 mice, Adenocarcinoma 755 s.c., tumor weight T/C", "assay": "NCI In Vivo Anticancer Drug Screen. Data for tumor model Adenocarcinoma 755 (subcutaneous) in B6D2F1 (BDF1) mice", "settings": "endpoint: mean tumor weight, higher = larger tumour", "outline": "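Transplantable tumor implanted; mice dosed with compound or vehicle; survival or tumor size recorded; ratio of treated to vehicle control reported.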", "note": "Values joined by “and” are separate entries in the source; they are usually repeats but may differ in a detail not shown here. Equal values may be shown once.", "data": [{"compound": "Cn1cnc([N+](=O)[O-])c1Sc1nc(N)nc2nc[nH]c12", "values": [{"measurement": "T/C", "setting": "dose: 0.04 mg/kg/injection, schedule: Q01DX011 (ip), vehicle: alkali diluted with saline", "result": "76 % of control"}, {"measurement": "T/C", "setting": "dose: 0.07 mg/kg/injection, schedule: Q01DX011 (ip), vehicle: methylcellulose (MC)", "result": "84 % of control"}, {"measurement": "T/C", "setting": "dose: 0.08 mg/kg/injection, schedule: Q01DX011 (ip), vehicle: alkali diluted with saline", "result": "72 % of control"}, {"measurement": "T/C", "setting": "dose: 0.13 mg/kg/injection, schedule: Q01DX011 (ip), vehicle: methylcellulose (MC)", "result": "86 % of control"}, {"measurement": "T/C", "setting": "dose: 0.16 mg/kg/injection, schedule: Q01DX011 (ip), vehicle: alkali diluted with saline", "result": "102 % of control"}, {"measurement": "T/C", "setting": "dose: 0.2 mg/kg/injection, schedule: Q01DX011 (ip), vehicle: methylcellulose (MC)", "result": "30 % of control"}, {"measurement": "T/C", "setting": "dose: 0.25 mg/kg/injection, schedule: Q01DX011 (ip), vehicle: distilled water + alcohol", "result": "29 % of control"}, {"measurement": "T/C", "setting": "dose: 0.25 mg/kg/injection, schedule: Q01DX011 (ip), vehicle: methylcellulose (MC)", "result": "65 % of control"}, {"measurement": "T/C", "setting": "dose: 0.32 mg/kg/injection, schedule: Q01DX011 (ip), vehicle: alkali diluted with saline", "result": "82 % of control"}, {"measurement": "T/C", "setting": "dose: 0.32 mg/kg/injection, schedule: Q01DX011 (ip), vehicle: saline", "result": "102 % of control"}, {"measurement": "T/C", "setting": "dose: 0.39 mg/kg/injection, schedule: Q01DX011 (ip), vehicle: methylcellulose (MC)", "result": "8 % of control"}, {"measurement": "T/C", "setting": "dose: 0.52 mg/kg/injection, schedule: Q01DX011 (ip), vehicle: distilled water + alcohol", "result": "18 % of control"}, {"measurement": "T/C", "setting": "dose: 0.62 mg/kg/injection, schedule: Q01DX011 (oral), vehicle: saline", "result": "89 % of control"}, {"measurement": "T/C", "setting": "dose: 0.63 mg/kg/injection, schedule: Q01DX011 (ip), vehicle: alkali diluted with saline", "result": "41 % of control"}, {"measurement": "T/C", "setting": "dose: 0.63 mg/kg/injection, schedule: Q01DX011 (ip), vehicle: saline", "result": "46 % of control"}, {"measurement": "T/C", "setting": "dose: 0.78 mg/kg/injection, schedule: Q01DX011 (ip), vehicle: methylcellulose (MC)", "result": "7 % of control"}, {"measurement": "T/C", "setting": "dose: 1.0 mg/kg/injection, schedule: Q01DX011 (ip), vehicle: methylcellulose (MC)", "result": "27 % of control"}, {"measurement": "T/C", "setting": "dose: 1.05 mg/kg/injection, schedule: Q01DX011 (ip), vehicle: distilled water + alcohol", "result": "5 % of control"}, {"measurement": "T/C", "setting": "dose: 1.25 mg/kg/injection, schedule: Q01DX011 (ip), vehicle: alkali diluted with saline", "result": "2 % of control"}, {"measurement": "T/C", "setting": "dose: 1.25 mg/kg/injection, schedule: Q01DX011 (ip), vehicle: saline", "result": "4 % of control"}, {"measurement": "T/C", "setting": "dose: 1.25 mg/kg/injection, schedule: Q01DX011 (oral), vehicle: saline", "result": "36 % of control"}, {"measurement": "T/C", "setting": "dose: 1.56 mg/kg/injection, schedule: Q01DX011 (ip), vehicle: methylcellulose (MC)", "result": "5 % of control"}, {"measurement": "T/C", "setting": "dose: 2.08 mg/kg/injection, schedule: Q01DX011 (ip), vehicle: distilled water + alcohol", "result": "6 % of control"}, {"measurement": "T/C", "setting": "dose: 2.5 mg/kg/injection, schedule: Q01DX011 (ip), vehicle: alkali diluted with saline", "result": "1 % of control"}, {"measurement": "T/C", "setting": "dose: 2.5 mg/kg/injection, schedule: Q01DX011 (ip), vehicle: methylcellulose (MC)", "result": "4 % of control"}, {"measurement": "T/C", "setting": "dose: 2.5 mg/kg/injection, schedule: Q01DX011 (ip), vehicle: saline", "result": "3 % of control"}, {"measurement": "T/C", "setting": "dose: 2.5 mg/kg/injection, schedule: Q01DX011 (oral), vehicle: saline", "result": "8 % of control"}, {"measurement": "T/C", "setting": "dose: 3.12 mg/kg/injection, schedule: Q01DX011 (ip), vehicle: methylcellulose (MC)", "result": "2 % of control"}, {"measurement": "T/C", "setting": "dose: 4.19 mg/kg/injection, schedule: Q01DX011 (ip), vehicle: distilled water + alcohol", "result": "2 % of control"}, {"measurement": "T/C", "setting": "dose: 5.0 mg/kg/injection, schedule: Q01DX011 (ip), vehicle: saline", "result": "1 % of control"}, {"measurement": "T/C", "setting": "dose: 5.0 mg/kg/injection, schedule: Q01DX011 (oral), vehicle: saline", "result": "5 % of control"}, {"measurement": "T/C", "setting": "dose: 6.25 mg/kg/injection, schedule: Q01DX011 (ip), vehicle: methylcellulose (MC)", "result": "2 % of control"}, {"measurement": "T/C", "setting": "dose: 10.0 mg/kg/injection, schedule: Q01DX011 (ip), vehicle: saline", "result": "1 % of control"}, {"measurement": "T/C", "setting": "dose: 12.5 mg/kg/injection, schedule: Q01DX011 (ip), vehicle: methylcellulose (MC)", "result": "1 % of control"}]}, {"compound": "CCCn1cnc2c(SCc3ccc(Br)cc3)nc(N)nc21", "values": [{"measurement": "T/C", "setting": "dose: 7.8 mg/kg/injection, schedule: Q01DX011 (ip), vehicle: methylcellulose (MC)", "result": "58 % of control"}, {"measurement": "T/C", "setting": "dose: 15.6 mg/kg/injection, schedule: Q01DX011 (ip), vehicle: methylcellulose (MC)", "result": "57 % of control"}, {"measurement": "T/C", "setting": "dose: 31.25 mg/kg/injection, schedule: Q01DX011 (ip), vehicle: methylcellulose (MC)", "result": "20 % of control"}, {"measurement": "T/C", "setting": "dose: 62.5 mg/kg/injection, schedule: Q01DX011 (ip), vehicle: methylcellulose (MC)", "result": "21 % of control and 23 % of control"}]}]}
